The experiment concerns the target cathepsin B (Mus musculus, UniProt P10605). Nature of the experiment: fluorogenic protease assay with Z-Phe-Arg-AMC at pH […]. In kind it is biochemical.

Chain of cathepsin B (P10605 80-333): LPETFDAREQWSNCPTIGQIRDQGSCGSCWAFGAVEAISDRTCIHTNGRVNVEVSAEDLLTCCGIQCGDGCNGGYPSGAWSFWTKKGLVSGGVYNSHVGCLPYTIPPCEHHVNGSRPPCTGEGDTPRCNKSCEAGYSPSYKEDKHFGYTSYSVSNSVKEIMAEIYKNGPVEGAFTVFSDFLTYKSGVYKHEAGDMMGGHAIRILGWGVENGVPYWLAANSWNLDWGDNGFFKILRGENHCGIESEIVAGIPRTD

`Cc1cccc(C)c1C(=O)OCC(=O)[C@H](CCCCN)NC(=O)[C@H](CCCNC(=N)N)NC(=O)OCc1ccccc1` [Z-Arg-Lys-AOMK] registered an IC50 of 25 nM.

In general, IC50 refers to the concentration at which inhibition is half-maximal. A lower IC50 goes with greater potency in that assay.

(Values after article PMC11969537 (ACS Chemical Neuroscience, 2025).)
